Reference: article PMC9325934, “Preliminary mechanistic insights of a brain-penetrant microtubule imaging PET ligand in a tau-knockout mouse model” (EJNMMI Research, 2022)
Where a name gives a salt, the structure may show the parent alone.

What was measured:
[1] = system: stabilized/bound and destabilized/free tubulins of SH-SY5Y cells; assay: Cytoskeleton kit-based tubulin assay with [11C]MPC-6827 (free vs bound tubulin fractions); format: cell-based, human; details: for increase of [11C]MPC-6827 radioactivity in bound fractions / increase of [11C]MPC-6827 radioactivity in free tubulin fractions / decrease of [11C]MPC-6827 radioactivity in bound tubulin fractions / decrease of [11C]MPC-6827 radioactivity in free tubulin fractions: 1.0 µM agent 3 h, vs untreated fractions
Procedure: To further investigate the tubulin selectivity of [^11C]MPC-6827 in SH-SY5Y cells, tubulin assay was performed using the commercially available kit-based assay (Cytoskeleton Inc, USA). Briefly, SH-SY5Y cells (7 × 10^6 cells/well) were pretreated with 1.0 µM of same MT stabilizing (EpoD, paclitaxel) and destabilizing agents (mertasine, vinblastine) for 3 h (n = 3/group). […] Samples were loaded on to ultra-centrifuge following the kit-based assay parameters to separate stabilized/bound and destabilized/free tubulins. Stabilized tubulins from low-speed centrifugation (1000×g for 5 min at 37 °C) and destabilized tubulins from high speed centrifugation (100,000×g for 20 min at 37 °C) were collected separately and their associated radioactivity was measured using a γ counter (Perkin Elmer).

SH-SY5Y cells = assay: In vitro [11C]MPC-6827 cell uptake assay with MT stabilizing/destabilizing agents and self-blocking
Procedure: Cell-binding assays in vitro were performed in SH-SY5Y cells with [^11C]MPC-6827 following our published protocols [20, 21]. […] They (0.5 × 10^6 cells/well) were treated with 1.0 µM of (a) stabilizing agents that increase MT polymerizations (paclitaxel, EpoD) [1, 25] or destabilizing agents increasing free tubulin content (vinblastine, mertasine) [26, 27] and 3 h later, [^11C]MPC-6827 (0.074 MBq/well) was added and incubated for 30 min at RT (n = 6/group). […] All the cells were washed with PBS and lysed with 1 N NaOH. Finally, the lysate from each well was γ-counted (PerkinElmer, Waltham, MA, USA) and counts-per-minute (cpm) values were normalized to the amount of radioactivity added to each well. Protein concentration was estimated in a subgroup of cells (n = 3) using the established Pierce BCA Protein Assay Kit from ThermoFisher [28, 29]. Cpm values were then matched to protein concentration per well, and the data expressed as %ID/mg of protein in each well.

[2] = In vitro autoradiography of [11C]MPC-6827 on brain sections; format: binding, mice
Procedure: Autoradiography studies in vitro were performed on postmortem frozen brain sections from tau KO and control mice (n = 6/group) following published protocols. Briefly, the sagittal sections were mount on a glass slides (Super frost plus slides, Fisher Scientific, Waltham, MA), air-dried for 30 min and incubated in PBS (pH 7.4) for 10 min to remove any endogenous binding. Additionally, a sub-section of tau KO brains (n = 4) were self-blocked with non-radioactive MPC-6827 (10 µM) 1 h prior to radiotracer treatment. The slides were air-dried and ~ 0.5 MBq of [^11C]MPC-6827 in PBS was added to each slide and incubated for 30 min. The slides were then washed with PBS (3×) and water (1×) at 4 °C and quickly air-dried. Slides containing the brain tissues were exposed to radioluminographic imaging cassette BAS IP SR 2025 (GE Healthcare) for 12 h at − 20 °C and scanned with a GE Amersham Typhoon scanner (25 µm pixel size). Autoradiographs were analyzed using ImageQuant TL 8.2 and ROI were manually drawn (see Additional file 1: 3), and specific binding in each ROI was calculated and expressed as photo-stimulated luminescence signals per square millimeter (PSL/mm^2).

β-tubulin = system: β-tubulin; parameters: method as in PMID 17575155; details: high-affinity, selective β-tubulin binding MT agent; cited from earlier work
[3] = parameters: method as in earlier work; details: mice, rats, and dogs; cited from earlier work
[4] = [11C]MPC-6827 brain microPET/CT at baseline and after EpoD treatment; format: in vivo; details: female Balb/C mice, EpoD 3.0 mg/kg intraperitoneal, 3 days acute treatment
Procedure: To validate the in vitro MT-stabilization cell uptake results, normal Balb/C mice (n = 6, 6 mo old) were treated with epothilone D (EpoD), a brain-penetrant, MT-stabilizing drug commonly used in tauopathies. [^11C]MPC-6827 brain PET/CT imaging was performed at baseline and after 3 days of acute treatment of EpoD treatment (3.0 mg/kg intraperitoneal injection). Whole-brain SUVmax was calculated and compared between the baseline and post-drug treatment scans.

[5] = [11C]MPC-6827 microPET/CT brain imaging in tau KO and WT mice; format: in vivo
Procedure: Small animal microPET/CT imaging was performed in anesthetized tau-KO and WT mice (n = 8/group) at 6 months of age. All mice received a bolus injection of [^11C]MPC-6827 (18.1 ± 0.01 MBq) via the tail vein. For the microPET/CT scans, the head/brain area was centered in the field of view, and the list-mode data from the emission scans were reframed into a 0-60 min dynamic binning sequence. Time-activity curves (TACs) were obtained, and radioactive uptake was expressed as standardized uptake values (SUVs) using the PMOD analysis software. Regions of interest (ROIs) were drawn for the whole brain and commonly AD-affected regions including cortex, striatum, hippocampus, and cerebellum, using Π-pmod Atlas software.

[6] = Post-PET ex vivo biodistribution of [11C]MPC-6827 in tau KO and WT mice
Procedure: Post-PET radiotracer tissue biodistribution studies were performed with [^11C]MPC-6827 in the KO and WT mice (n = 4/group). After dynamic brain imaging from 0 to 60 min, mice were euthanized, and samples of brain, blood, heart, lung, liver, spleen, pancreas, kidney, and muscle were harvested, weighed, and γ-counted using a Wallac Gamma Counter (PerkinElmer) with a standard dilution of the injectate. […]

[7] = 1.0 µM agent for 3 h, then tracer 30 min at RT, vs untreated cells

## CC[C@]1(O)C[C@@H]2CN(CCc3c([nH]c4ccccc34)[C@@](C(=O)OC)(c3cc4c(cc3OC)N(C)[C@H]3[C@@](O)(C(=O)OC)[C@H](OC(C)=O)[C@]5(CC)C=CCN6CC[C@]43[C@@H]65)C2)C1 [vinblastine]
[1]
  increase of [11C]MPC-6827 radioactivity in bound fractions: 84 (± 4) %
  increase of [11C]MPC-6827 radioactivity in free tubulin fractions: ~ 43 (± 1) %
SH-SY5Y cells; [7]
  increase of [11C]MPC-6827 radioactive uptake: ~ 78 (± 2) %

## CC(=O)O[C@H]1C(=O)[C@@]2(C)[C@H]([C@H](OC(=O)c3ccccc3)[C@]3(O)C[C@H](OC(=O)[C@H](O)[C@@H](NC(=O)c4ccccc4)c4ccccc4)C(C)=C1C3(C)C)[C@]1(OC(C)=O)CO[C@@H]1C[C@@H]2O [paclitaxel]
[1]
  decrease of [11C]MPC-6827 radioactivity in bound tubulin fractions: ~ 60 (± 2) %
  decrease of [11C]MPC-6827 radioactivity in free tubulin fractions: ~ 36.8 (± 3) %

## COc1ccc(N(C)c2nc(C)nc3ccccc23)cc1 [MPC-6827, MPC-6827 hydrochloride]
[2]; non-radioactive MPC-6827 10 µM 1 h prior to radiotracer, whole brain, cortex, hippocampus, mid-brain regions of tau KO sections
  lower radiotracer uptake on blocking compared to untreated tau KO samples: 63–70%
β-tubulin
  IC50: 1.5 nM
[3]
  brain-to-plasma ratios: 14–30 times
SH-SY5Y cells; non-radioactive MPC-6827 1.0 µM 60 min before tracer, 30 min incubation
  lower [11C]MPC-6827 radioactive uptake in self-blocking assay: ~ 70 (± 1) %

## C/C1=C/C[C@@H](/C(C)=C/c2csc(C)n2)OC(=O)C[C@H](O)C(C)(C)C(=O)[C@H](C)[C@@H](O)[C@@H](C)CCC1 [EpoD, Epothilone d]
[1]
  decrease of [11C]MPC-6827 radioactivity in bound tubulin fractions: ~ 62 (± 6) %
  decrease of [11C]MPC-6827 radioactivity in free tubulin fractions: ~ 44 (± 1) %
[4]
  lower [11C]MPC-6827 brain uptake (whole-brain SUVmax) with EpoD treatment compared to baseline: ~ 23 (± 1) %
SH-SY5Y cells; [7]
  decrease of [11C]MPC-6827 radioactive uptake: ~ 44 (± 2) %

## COc1cc2cc(c1Cl)N(C)C(=O)C[C@H](OC(=O)[C@H](C)N(C)C(=O)CCS)[C@]1(C)O[C@H]1[C@H](C)[C@@H]1C[C@@](O)(NC(=O)O1)[C@H](OC)/C=C/C=C(\C)C2 [mertasine]
[1]
  increase of [11C]MPC-6827 radioactivity in bound fractions: ~ 66 (± 2) %
  increase of [11C]MPC-6827 radioactivity in free tubulin fractions: ~ 39 (± 3) %
SH-SY5Y cells; [7]
  increase of [11C]MPC-6827 radioactive uptake: 63 (± 2) %

## Cc1nc(N(C)c2ccc(O[11CH3])cc2)c2ccccc2n1 [[^11C]MPC-6827]
[1]; tracer 30 min at RT
  increased radioactivity in destabilized/free tubulin fractions compared to bound fractions: > 90 (± 4) %
[5]; WT mice, 0-60 min microPET/CT, IV
  whole-brain SUVmax: 1.74
[5]; both genotypes (tau KO and WT)
  time of peak brain radioactivity (TAC): around 4 min
[5]; tau KO mice, 0-60 min microPET/CT, IV
  whole-brain SUVmax: 2.33
[5]; tau KO vs WT mice, 0-60 min microPET/CT, IV
  whole-brain SUVmax in tau KO higher than in WT controls: 33 (± 2) %
[6]; WT controls, brain
  brain uptake: 1.03 ± 0.29 %ID/g
[6]; brain
  higher brain uptake in tau KO mice compared to WT controls: ~ 41%
[6]; controls (WT), cortical regions
  uptake in cortical regions: 0.69 ± 0.07 %ID/g
[6]; cortical regions
  uptake in cortical regions of tau KO brains higher than in controls: 37%
[6]; tau KO mice, brain
  brain uptake: 1.76 ± 0.31 %ID/g
[6]; tau KO mice, cortical regions
  uptake in cortical regions: 1.11 ± 0.03 %ID/g
[2]; autoradiography in vitro, cortex
  higher radioactivity in tau KO brains compared to age-matched controls, cortex: ~ 38[± 2] %
[2]; autoradiography in vitro, hippocampus
  higher radioactivity in tau KO brains compared to age-matched controls, hippocampus: ~ 33[± 3] %
[2]; autoradiography in vitro, midbrain regions
  higher radioactivity in tau KO brains compared to age-matched controls, midbrain regions: 30[± 3] %
[2]; autoradiography in vitro, whole brain
  higher radioactivity in tau KO brains compared to age-matched controls, whole brain: ~ 46[± 4] %
